We go through 4 molecules from patent US20040106838A1, “Use of ionic liquids to separate diolefins” (NOVA Chemicals (International) S.A., priority 2002, published 2004).

Data set [1] in a line: C5 hydrocarbon solubility in bmim+ BF4− ionic liquid. The method, then: The testing apparatus consisted of a flat-bottomed florence flask with a graduated neck. The flask was charged with 75 mL of bmim^+ BF4^−, the level being recorded. A known quantity of a C5 hydrocarbon was then added to the flask and the flask was sealed. The overall liquid level and the location of the liquid-liquid interfacial meniscus were recorded. The mixture was then agitated to contact the two liquids and the two phases were allowed to separate. The locations of all meniscuses were then recorded. Agitation and phase separation was then repeated until the liquid levels remained unchanged. The volume change of the hydrocarbon phase corresponds to the quantity of hydrocarbon dissolved in the ionic liquid. The testing was conducted at ambient temperature.

Data set [2] in a line: Liquid-liquid extraction of butadiene from mixed C4 by bmim+ BF4− ionic liquid. Format: physicochemical. Particulars: room temperature. The source says: The testing apparatus consists of three sample cylinders (150 cc, 10 cc, and 50 cc) connected by ⅜-inch tubing (in the order listed) with valves allowing for isolation of each cylinder. A gas syringe is used to take C4 samples for GC analysis. Various mixed C4S were used which contained varying quantities of 1,3-butadiene (ranging from 15-85 weight %). The composition range of the non-butadiene fraction of the standards was (in weight %) n-butane 29-33%, 1-butene 20-33%, isobutene 0-36%, trans-2-butene 7-17%, and cis-2-butene 5-17%.
To measure C4 extraction, 40 mL of bmim^+ BF4^− absorbent is loaded into the 150 cc cylinder and the 10 cc and 150 cc cylinders are then evacuated. The 10 cc cylinder is then isolated and charged with mixed C4 liquid. This liquid is then added to the 150 cc cylinder. The 10 cc cylinder is then isolated and a second 10 cc is then added to the and subsequently added to the 150 cc cylinder and the 150 cc cylinder is isolated. The apparatus is then agitated to maximize contact between the C4 and ionic liquid phases within the 150 cc cylinder. Following agitation, the liquid is allowed to sit 12 hours to allow the two liquid phases to separate.
To determine the level and composition of C4 in the ionic liquid, a 10 cc sample of ionic liquid from the 150 cc cylinder is charged into the 10 cc cylinder. The 150 cc cylinder is then isolated and the 10 cc ionic liquid sample is charged to the 50 cc cylinder, which is then isolated. The 50 cc cylinder is then heated and the gas syringe is used to collect C4 gas evolving from the ionic liquid. The collected gas is analyzed by GC.
These pseudo-equilibrium extraction experiments conducted for different butadiene concentrations yielded enhanced concentrations of butadiene in the C4 extracted by the ionic liquid.

Setting [3] is: in 1-butyl-3-methylimidazolium tetrafluoroborate (bmim+ BF4−), ambient temperature.
[4] abbreviates: solubility in bmim+ BF4−, ambient temperature.

Read-outs that look alike come from different tables or passages of the source.

Consider `C=CC(=C)C` [Isoprene, isoprene], for which, in data set [1] (setting [3]), the “Solubility (mol C5/L Ionic Liquid)” value amounted to 0.611 mol C5/L Ionic Liquid. In data set [1] (setting [4]), the “Selectivity Over 2-Methyl-2-Butene” value stood at 1.7 and the “Selectivity Over Isopentane” value came out at 18.0.

For the molecule `C=CC=C` [Butadiene, 1,3-butadiene], the “Butadiene Concentration in Extracted C4 (wt %)” value in data set [2] (Butadiene Concentration in Feed 15 wt %) was 37.6 wt %; in data set [2] (Butadiene Concentration in Feed 30 wt %), 43.3 wt %; in data set [2] (Butadiene Concentration in Feed 50 wt %), 74.1 wt %; in data set [2] (Butadiene Concentration in Feed 70 wt %), 82.0 wt %; in data set [2] (Butadiene Concentration in Feed 85 wt %), 91.8 wt %.

Turning to `CC=C(C)C` [2-Methyl-2-Butene, 2-methyl-2-butene], the “Solubility (mol C5/L Ionic Liquid)” value in data set [1] (setting [3]) amounted to 0.360 mol C5/L Ionic Liquid. Moreover, in data set [1] (setting [4]), the “Selectivity Over Isopentane” value is listed as 10.6.

As for `CCC(C)C` [Isopentane, isopentane], in data set [1], the “Solubility (mol C5/L Ionic Liquid)” value is 0.034 mol C5/L Ionic Liquid.
